This note sets out measurements from patent US11912693B2, “Compounds for modulating S1P1 activity and methods of using the same” (TREVENA, INC., priority 2017, dated 2024).

The structures appear in SMILES notation.

For test [1], the target named is T1, human sphingosine-1-phosphate receptor 1 (S1P1) (Homo sapiens (Human), UniProt P21453). Kind of test: Inhibition of cAMP production (HTRF cAMP HiRange), S1P1 CHO-K1 cells. The settings on record: for Emax: CHO-K1, efficacy (SPAN) normalized to fingolimod, read-out: hS1P1 cAMP SPAN. It is filed as cell-based. An outline of the steps:
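CHO-K1 cells stably co-expressing human S1P1 (C-terminal Prolink tag) and EA-β-arrestin2 were grown in AssayComplete Media 6 at 37° C. and 5% CO2, plated, and incubated overnight. Agonist-driven inhibition of intracellular cAMP was read by TR-FRET with the HTRF cAMP HiRange kit on a PheraStar reader. Potency is pEC50, and efficacy (SPAN) is normalized to fingolimod.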
In general terms: Cyclic AMP is a second messenger, typically raised through Gs and lowered through Gi signalling.
Target sequence in this assay (P21453 whole entry, looked up): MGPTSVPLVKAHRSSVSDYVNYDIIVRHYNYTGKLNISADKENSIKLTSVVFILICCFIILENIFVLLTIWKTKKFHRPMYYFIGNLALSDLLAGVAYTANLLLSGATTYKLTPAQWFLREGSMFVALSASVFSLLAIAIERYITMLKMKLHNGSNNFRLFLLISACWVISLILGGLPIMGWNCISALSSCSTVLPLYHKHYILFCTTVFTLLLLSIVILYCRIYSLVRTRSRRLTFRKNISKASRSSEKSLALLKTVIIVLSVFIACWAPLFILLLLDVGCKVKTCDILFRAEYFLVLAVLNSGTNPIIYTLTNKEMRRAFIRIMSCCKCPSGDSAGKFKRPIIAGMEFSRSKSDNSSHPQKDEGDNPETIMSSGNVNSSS

Test [2] concerns the target T1, human sphingosine-1-phosphate receptor 1 (S1P1). Kind of test: β-Arrestin2 recruitment assay (PathHunter), S1P1 CHO-K1 cells. Type of test: cell-based. Conditions: for Emax: CHO-K1, efficacy (SPAN) normalized to fingolimod, read-out: hS1P1 B-arrestin2 SPAN. In a few lines: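 Enzyme-fragment complementation read-out: agonist-driven β-arrestin2 binding to ProLink-tagged human S1P1 in stable CHO-K1 cells restores β-galactosidase, measured 1 h at room temperature after a 60 min 37° C. compound incubation. Potency as pEC50, efficacy relative to fingolimod (SPAN).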
Target sequence in this assay (P21453 whole entry, looked up): as above
Target sequence in this assay (P32121 whole entry partner, looked up): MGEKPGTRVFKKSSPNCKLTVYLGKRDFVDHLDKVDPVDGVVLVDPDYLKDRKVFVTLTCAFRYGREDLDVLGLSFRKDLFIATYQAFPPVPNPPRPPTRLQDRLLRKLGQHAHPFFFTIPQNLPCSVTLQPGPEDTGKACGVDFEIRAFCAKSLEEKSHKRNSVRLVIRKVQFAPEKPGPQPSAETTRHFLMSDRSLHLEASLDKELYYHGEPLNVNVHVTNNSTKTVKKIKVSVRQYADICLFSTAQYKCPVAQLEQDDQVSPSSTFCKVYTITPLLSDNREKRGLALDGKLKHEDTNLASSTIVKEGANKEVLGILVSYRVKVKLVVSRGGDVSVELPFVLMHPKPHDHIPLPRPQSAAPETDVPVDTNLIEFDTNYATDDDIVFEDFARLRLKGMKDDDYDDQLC
Background: Recruitment of arrestin is a read-out of receptor activation apart from second messengers.

The mark [3] stands for this setting: inhibition of cAMP production, S1P1 CHO-K1 cells.
Where [4] appears, read: β-arrestin2 recruitment, S1P1 CHO-K1 cells.

For the compound `COCCn1cc(-c2ccccc2C)cc1-c1ccc2c(c1)nnn2C(C)C` [Compound 534, 5-[1-(2-methoxyethyl)-4-(2-methylphenyl)-1H-pyrrol-2-yl]-1-(propan-2-yl)-1H-1,2,3-benzotriazole], the Emax in test [1] and in test [2] was less than 75% throughout. In test [1] (setting [3]), the “hS1P1 cAMP pEC50” value is given as less than 6.5. Moreover, the “hS1P1 B-arrestin2 pEC50” value in test [2] (setting [4]) is less than 5.
Turning to `Cc1ccncc1-c1noc(-c2ccc3c(c2)NC(=O)CN3)n1` [Compound 613, 7-[3-(4-methylpyridin-3-yl)-1,2,4-oxadiazol-5-yl]-1,2,3,4-tetrahydroquinoxalin-2-one], the “hS1P1 cAMP pEC50” value in test [1] (setting [3]) is less than 6.5. Moreover, in test [2] (setting [4]), the “hS1P1 B-arrestin2 pEC50” value is listed as less than 5.
Turning to `CCc1ncc(-c2noc(-c3ccc4c(c3)nnn4C(C)C)n2)cn1` [Compound 135, 5-[3-(2-ethylpyrimidin-5-yl)-1,2,4-oxadiazol-5-yl]-1-(propan-2-yl)-1H-1,2,3-benzotriazole], the Emax in test [1] and in test [2] was less than 75% each time. Moreover, the “hS1P1 cAMP pEC50” value in test [1] (setting [3]) is listed as less than 6.5. Further, the “hS1P1 B-arrestin2 pEC50” value in test [2] (setting [4]) was less than 5.
As for `CCC1(CC)CC(=O)c2cc(-c3nc(-c4ccnc(NS(C)(=O)=O)c4)no3)ccc2O1` [Compound 556, N-(4-(5-(2,2-diethyl-4-oxochroman-6-yl)-1,2,4-oxadiazol-3-yl)pyridin-2-yl)methanesulfonamide], the “hS1P1 cAMP pEC50” value in test [1] (setting [3]) was more than 6.5. Also, the “hS1P1 B-arrestin2 pEC50” value in test [2] (setting [4]) is listed as more than 5.
For `CCC1(CC)CC(=O)c2cc(-c3nc(-c4ccc5ncccc5c4)no3)ccc2O1` [Compound 521, 2,2-diethyl-6-(3-(quinolin-6-yl)-1,2,4-oxadiazol-5-yl)chroman-4-one], in that order: less than 6.5 and less than 5.
With `CCC1(CC)CC(=O)c2cc(-c3nnc(-c4ccc5c(c4)nnn5C(C)C)o3)ccc2O1` [Compound 223, 2,2-diethyl-6-(5-(1-isopropyl-1H-benzo[d][1,2,3]triazol-5-yl)-1,3,4-oxadiazol-2-yl)chroman-4-one], the Emax in test [1] and in test [2] was less than 75% each time. Moreover, the “hS1P1 cAMP pEC50” value in test [1] (setting [3]) is reported as less than 6.5. Further, the “hS1P1 B-arrestin2 pEC50” value in test [2] (setting [4]) was less than 5.
With `CN1C(=O)Cc2cc(-c3nc(-c4cccnc4)no3)ccc21` [Compound 377, 1-methyl-5-[3-(pyridin-3-yl)-1,2,4-oxadiazol-5-yl]-2,3-dihydro-1H-indol-2-one], the “hS1P1 cAMP pEC50” value in test [1] (setting [3]) is listed as less than 6.5. For the same compound, in test [2] (setting [4]), the “hS1P1 B-arrestin2 pEC50” value is less than 5.
Turning to `O=C(O)CCn1nnc2cc(-c3noc(-c4ccccc4Br)n3)ccc21` [Compound 134, 3-(5-(5-(2-bromophenyl)-1,2,4-oxadiazol-3-yl)-1H-benzo[d][1,2,3]triazol-1-yl)propanoic acid], the Emax in test [1] and in test [2] was less than 75% each time. In addition, the “hS1P1 cAMP pEC50” value in test [1] (setting [3]) was less than 6.5. For the same compound, the “hS1P1 B-arrestin2 pEC50” value in test [2] (setting [4]) is less than 5.
Turning to `COc1ccccc1-c1noc(-c2ccc3c(cnn3C(C)C)c2)n1` [Compound 370, 5-(1-isopropyl-1H-indazol-5-yl)-3-(2-methoxyphenyl)-1,2,4-oxadiazole], in test [1] (setting [3]), the “hS1P1 cAMP pEC50” value is given as more than 6.5. Besides, the “hS1P1 B-arrestin2 pEC50” value in test [2] (setting [4]) was more than 5.
Turning to `Brc1ccccc1-c1nc(-c2ccc3c(c2)nnn3CC2CC2)no1` [Compound 98, 5-(2-bromophenyl)-3-(1-(cyclopropylmethyl)-1H-benzo[d][1,2,3]triazol-5-yl)-1,2,4-oxadiazole], the Emax in test [1] and in test [2] was more than 75% throughout. Besides, in test [1] (setting [3]), the “hS1P1 cAMP pEC50” value is on record as less than 6.5. In test [2] (setting [4]), the “hS1P1 B-arrestin2 pEC50” value is listed as more than 5.
With `Cc1ccccc1-c1noc(-c2ccc3nnn(C(C)C)c3c2)n1` [Compound 308, 6-[3-(2-methylphenyl)-1,2,4-oxadiazol-5-yl]-1-(propan-2-yl)-1H-1,2,3-benzotriazole], the Emax in test [1] and in test [2] was less than 75% each time. Further, the “hS1P1 cAMP pEC50” value in test [1] (setting [3]) is less than 6.5. Further, in test [2] (setting [4]), the “hS1P1 B-arrestin2 pEC50” value is less than 5.
Regarding `CC(C)(CO)n1nnc2cc(-c3noc(-c4cnccc4C(F)(F)F)n3)ccc21` [Compound 644, 2-methyl-2-(5-(5-(4-(trifluoromethyl)pyridin-3-yl)-1,2,4-oxadiazol-3-yl)-1H-benzo[d][1,2,3]triazol-1-yl)propan-1-ol], the Emax in test [1] and in test [2] was more than 75% in each case. Also, the “hS1P1 cAMP pEC50” value in test [1] (setting [3]) was less than 6.5. Besides, in test [2] (setting [4]), the “hS1P1 B-arrestin2 pEC50” value is less than 5.
Consider `CCC1(CC)CC(=O)c2cc(-c3nc(-c4ccsc4)no3)ccc2N1` [Compound 554, 2,2-diethyl-6-(3-(thiophen-3-yl)-1,2,4-oxadiazol-5-yl)-2,3-dihydroquinolin-4(1H)-one], for which the Emax in test [1] and in test [2] was more than 75% throughout. Moreover, the “hS1P1 cAMP pEC50” value in test [1] (setting [3]) was more than 6.5. Also, the “hS1P1 B-arrestin2 pEC50” value in test [2] (setting [4]) is more than 5.
For the compound `CC(C)n1ccc2cc(-c3nc(-c4ccccc4F)cs3)ccc21` [Compound 403, 4-(2-fluorophenyl)-2-(1-isopropylindol-5-yl)thiazole], the Emax in test [1] and in test [2] was less than 75% in each case. Further, the “hS1P1 cAMP pEC50” value in test [1] (setting [3]) is listed as less than 6.5. The “hS1P1 B-arrestin2 pEC50” value in test [2] (setting [4]) is less than 5.
As to `Cc1ccncc1-c1noc(-c2cnc3c(c2)nnn3C(C)C)n1` [Compound 414, 4-methyl-3-{5-[3-(propan-2-yl)-3H-[1,2,3]triazolo[4,5-b]pyridin-6-yl]-1,2,4-oxadiazol-3-yl}pyridine], in test [1] (setting [3]), the “hS1P1 cAMP pEC50” value is given as more than 6.5. Also, the “hS1P1 B-arrestin2 pEC50” value in test [2] (setting [4]) is listed as less than 5.
Turning to `CC(C)n1ncc2cc(-c3nc(-c4ccccc4Cl)no3)ccc21` [Compound 330, 3-(2-chlorophenyl)-5-(1-isopropyl-1H-indazol-5-yl)-1,2,4-oxadiazole], the Emax in test [1] and in test [2] was more than 75% throughout. For the same compound, the “hS1P1 cAMP pEC50” value in test [1] (setting [3]) is given as more than 6.5. In addition, the “hS1P1 B-arrestin2 pEC50” value in test [2] (setting [4]) is reported as more than 5.
For the compound `CC(C)Nc1ccc(-c2nc(-c3ccc4sc(N)nc4c3)no2)cc1C#N` [Compound 441, 5-(3-(2-aminobenzo[d]thiazol-5-yl)-1,2,4-oxadiazol-5-yl)-2-(isopropylamino)benzonitrile], the Emax in test [1] and in test [2] was more than 75% each time. Besides, the “hS1P1 cAMP pEC50” value in test [1] (setting [3]) was more than 6.5. The “hS1P1 B-arrestin2 pEC50” value in test [2] (setting [4]) is listed as more than 5.
In the case of `COc1ccc(-c2cnc(-c3ccc4c(c3)nnn4C(C)C)s2)cc1` [Compound 109, 2-(1-isopropyl-1H-benzo[d][1,2,3]triazol-5-yl)-5-(4-methoxyphenyl)thiazole], the Emax in test [1] and in test [2] was less than 75% throughout. Also, the “hS1P1 cAMP pEC50” value in test [1] (setting [3]) is less than 6.5. Besides, the “hS1P1 B-arrestin2 pEC50” value in test [2] (setting [4]) is reported as more than 5.
`Cc1ccc(-c2noc(-c3ccc4c(c3)nnn4C3CCCC3)n2)cc1` [Compound 164, 1-cyclopentyl-5-[3-(4-methylphenyl)-1,2,4-oxadiazol-5-yl]-1H-1,2,3-benzotriazole]: in test [1] (setting [3]), the “hS1P1 cAMP pEC50” value is less than 6.5. In test [2] (setting [4]), the “hS1P1 B-arrestin2 pEC50” value was less than 5.
For `CC(C)Nc1ccc(-c2ncc(-c3ccc4c(c3)nnn4C(C)C)cn2)cc1C#N` [Compound 596, 5-(5-(1-isopropyl-1H-benzo[d][1,2,3]triazol-5-yl)pyrimidin-2-yl)-2-(isopropylamino)benzonitrile], in that order: more than 6.5 and more than 5.
For the compound `CCc1ccccc1-c1nc(-c2ccc3c(c2)nnn3C(C)(C)CO)no1` [Compound 624, 2-(5-(5-(2-ethylphenyl)-1,2,4-oxadiazol-3-yl)-1H-benzo[d][1,2,3]triazol-1-yl)-2-methylpropan-1-ol], the Emax is less than 75% in test [1] and more than 75% in test [2]. For the same compound, in test [1] (setting [3]), the “hS1P1 cAMP pEC50” value is given as less than 6.5. Besides, in test [2] (setting [4]), the “hS1P1 B-arrestin2 pEC50” value is recorded as less than 5.
For `Clc1ccc(-c2noc(-c3ccc4c(c3)nnn4C3CCOCC3)n2)s1` [Compound 82, 5-[3-(5-chlorothiophen-2-yl)-1,2,4-oxadiazol-5-yl]-1-(oxan-4-yl)-1H-1,2,3-benzotriazole], in that order: less than 75%, less than 75%, less than 6.5 and less than 5.
For `N#Cc1cc(-c2nnc(-c3ccc4[nH]cnc4c3)o2)ccc1NCC1CC1` [Compound 357, 5-[5-(1H-1,3-benzodiazol-5-yl)-1,3,4-oxadiazol-2-yl]-2-[(cyclopropylmethyl)amino]benzonitrile], in that order: more than 75%, more than 75%, more than 6.5 and more than 5.
For the compound `Cn1cnc2ccc(-c3nnc(-c4ccc(NC(C)(C)CO)c(C#N)c4)o3)cc21` [Compound 634, 2-[(1-hydroxy-2-methylpropan-2-yl)amino]-5-[5-(1-methyl-1H-1,3-benzodiazol-6-yl)-1,3,4-oxadiazol-2-yl]benzonitrile], in test [1] (setting [3]), the “hS1P1 cAMP pEC50” value was less than 6.5. In addition, the “hS1P1 B-arrestin2 pEC50” value in test [2] (setting [4]) is less than 5.
For the compound `CC(C)n1nnc2cc(-c3noc(C45C6C7C4C4C5C6C74C(=O)O)n3)ccc21` (stereo not drawn) [Compound 379], the Emax in test [1] and in test [2] was less than 75% each time. The EC50 in test [1] (inhibition of cAMP production, S1P1 CHO-K1 cells, read-out: hS1P1 cAMP pEC50 (converted)) is more than 0.316 µM; in test [2] (β-arrestin2 recruitment, S1P1 CHO-K1 cells, read-out: hS1P1 B-arrestin2 pEC50 (converted)), more than 10 µM.
Regarding `Cc1ccccc1-c1csc(-c2cnc3c(ccn3C(C)C)c2)n1` [Compound 407, 2-(1-isopropylpyrrolo[2,3-b]pyridin-5-yl)-4-(o-tolyl)thiazole], the “hS1P1 cAMP pEC50” value in test [1] (setting [3]) is less than 6.5. The “hS1P1 B-arrestin2 pEC50” value in test [2] (setting [4]) is listed as less than 5.
